In the NIST ThermoML archive (doi:10.1016/j.jct.2016.07.029):

Test: excess molar enthalpy (molar enthalpy of mixing); xn = mol fraction of the nth substance listed
Conditions: 100 kPa, Liquid, Calvet calorimetry

[Zn] [zinc] + [Ga]
Conditions | excess molar enthalpy [kJ/mol]
722 K, x1 = 0.0966 | 0.523
722 K, x1 = 0.132 | 0.672
722 K, x1 = 0.1679 | 0.858
722 K, x1 = 0.237 | 1.14
722 K, x1 = 0.2478 | 1.07
722 K, x1 = 0.2796 | 1.27
722 K, x1 = 0.3239 | 1.41
722 K, x1 = 0.3424 | 1.35
722 K, x1 = 0.3664 | 1.5
722 K, x1 = 0.4104 | 1.58
722 K, x1 = 0.4155 | 1.51
722 K, x1 = 0.4432 | 1.61
722 K, x1 = 0.4746 | 1.58
722 K, x1 = 0.4747 | 1.65
722 K, x1 = 0.5057 | 1.68
722 K, x1 = 0.5202 | 1.58
722 K, x1 = 0.5368 | 1.69
722 K, x1 = 0.5565 | 1.58
722 K, x1 = 0.562 | 1.7
722 K, x1 = 0.5901 | 1.58
722 K, x1 = 0.6188 | 1.57
722 K, x1 = 0.6444 | 1.55
722 K, x1 = 0.6659 | 1.52
722 K, x1 = 0.6846 | 1.49
722 K, x1 = 0.761 | 1.36
722 K, x1 = 0.8068 | 1.27
722 K, x1 = 0.8495 | 1.07
722 K, x1 = 0.9004 | 0.762
722 K, x1 = 0.948 | 0.427
923 K, x1 = 0.07739 | 0.385
923 K, x1 = 0.1307 | 0.625
923 K, x1 = 0.1593 | 0.763
923 K, x1 = 0.2353 | 1.05
923 K, x1 = 0.2736 | 1.19
923 K, x1 = 0.3154 | 1.31
923 K, x1 = 0.3262 | 1.32
923 K, x1 = 0.3711 | 1.45
923 K, x1 = 0.3774 | 1.47
923 K, x1 = 0.4101 | 1.51
923 K, x1 = 0.4408 | 1.59
923 K, x1 = 0.4434 | 1.61
923 K, x1 = 0.4743 | 1.65
923 K, x1 = 0.4896 | 1.66
923 K, x1 = 0.4981 | 1.69
